Experimental data from ChEMBL document CHEMBL5038646, “Structure-Activity Relationship Studies of New Sinapic Acid Phenethyl Ester Analogues Targeting the Biosynthesis of 5-Lipoxygenase Products: The Role of Phenolic Moiety, Ester Function, and Bioisosterism” (J Nat Prod, 2022).
Calls of active or inactive are those of the source. The calls are words filed in the database; no cut-off is given here.

Tests used:
[1] = target: T1, Polyunsaturated fatty acid 5-lipoxygenase (Homo sapiens, UniProt P09917); assay: Inhibition of 5-LO in thapsigargin stimulated human PMNL cells assessed as reduction in 5-LO product level preincubated for 5 mins followed by thapsigargin addition and measured after 15 mins by RP-HPLC analysis; format: cell-based
T1 sequence (P09917 whole entry): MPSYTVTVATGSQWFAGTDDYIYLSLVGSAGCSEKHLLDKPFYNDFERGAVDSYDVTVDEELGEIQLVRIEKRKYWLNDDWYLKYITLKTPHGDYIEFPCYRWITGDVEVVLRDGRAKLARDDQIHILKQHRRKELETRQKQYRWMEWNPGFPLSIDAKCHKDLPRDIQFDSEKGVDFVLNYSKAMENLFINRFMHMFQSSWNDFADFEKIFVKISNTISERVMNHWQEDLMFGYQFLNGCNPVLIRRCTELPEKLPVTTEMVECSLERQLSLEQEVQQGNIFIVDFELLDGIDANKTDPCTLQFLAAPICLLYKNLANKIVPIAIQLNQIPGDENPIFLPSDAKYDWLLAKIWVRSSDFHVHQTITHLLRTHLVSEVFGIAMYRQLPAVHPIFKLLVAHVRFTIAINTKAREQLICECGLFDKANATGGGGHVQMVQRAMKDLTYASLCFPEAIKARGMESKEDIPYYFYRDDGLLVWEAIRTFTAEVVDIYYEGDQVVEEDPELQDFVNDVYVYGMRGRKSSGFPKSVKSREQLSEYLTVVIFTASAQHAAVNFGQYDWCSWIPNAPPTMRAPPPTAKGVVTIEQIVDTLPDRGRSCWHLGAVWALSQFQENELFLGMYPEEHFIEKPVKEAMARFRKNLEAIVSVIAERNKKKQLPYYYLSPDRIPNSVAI

[2] = target: T2, Polyunsaturated fatty acid 5-lipoxygenase (Homo sapiens) (UniProt P09917); assay: Inhibition of 5-LO in A23187-stimulated human HEK293 cells assessed as reduction in 5-LO product level at 1 uM preincubated for 5 mins followed by A23187, arachidonic acid addition and measured after 15 mins by RP-HPLC analysis relative to control; format: cell-based
T2 sequence (whole entry): T1 sequence (P09917 whole entry)

## COc1cc(CC(=O)OCCc2ccccc2)cc(OC)c1O
[1]
  IC50: 1100 nM
[2]
  inhibition: inactive

## COc1cc(/C=C/C(=O)OCCc2ccccc2)cc(OC)c1OC
[2]
  inhibition: inactive

## COc1cc(/C=C/C(=O)OCCc2cccc(C(F)(F)F)c2)cc(OC)c1O
[1]
  IC50: 200 nM
[2]
  inhibition: Active

## COc1cc(/C=C/C(=O)OCCc2ccccc2)cc(OC)c1OC(C)=O
[1]
  IC50: 270 nM
[2]
  inhibition: Active

## COc1cc(/C=C/C(=O)OCCc2cccc(C)c2)cc(OC)c1O
[1]
  IC50: 200 nM
[2]
  inhibition: Active

## COc1cc(/C=C/C(=O)OCCc2ccc(C)cc2)cc(OC)c1O
[2]
  inhibition: Active

## COc1cc(/C=C/c2nc(Cc3ccccc3)no2)cc(OC)c1O
[1]
  IC50: 300 nM
[2]
  inhibition: Active

## COc1cc(/C=C/c2nc(CCc3ccccc3)no2)cc(OC)c1O
[1]
  IC50: 270 nM
[2]
  inhibition: Active

## COc1cc(/C=C/C(=O)OCCc2ccccc2)cc(OC)c1
[2]
  inhibition: inactive

## COc1cc(/C=C/C(=O)CCc2ccccc2)cc(OC)c1O
[2]
  inhibition: Active

## COc1cc(/C=C/C(=O)OCCC2CCCCC2)cc(OC)c1O
[2]
  inhibition: Active

## CC(c1cc2ccccc2s1)N(O)C(N)=O (stereo not given)
[2]
  inhibition: Active

## COc1cc(/C=C/C(=O)OCCc2ccc(F)cc2)cc(OC)c1O
[2]
  inhibition: Active

## COc1cc(CCC(=O)CCc2ccccc2)cc(OC)c1O
[1]
  IC50: 420 nM
[2]
  inhibition: Active

## COc1cc(/C=C/C(=O)OCCc2ccccc2C(F)(F)F)cc(OC)c1O
[1]
  IC50: 350 nM
[2]
  inhibition: Active

## COc1cc(/C=C/C(=O)OCCc2ccccc2C)cc(OC)c1O
[1]
  IC50: 240 nM
[2]
  inhibition: Active

## COc1cc(/C=C/C(=O)OCCc2ccccc2F)cc(OC)c1O
[1]
  IC50: 240 nM
[2]
  inhibition: Active

## COc1cc(C(=O)OCCc2ccccc2)cc(OC)c1O
[2]
  inhibition: inactive

## COc1cc(/C=C/COCc2ccccc2)cc(OC)c1O
[1]
  IC50: 1100 nM
[2]
  inhibition: Active

## C#CCOC(=O)/C=C/c1cc(OC)c(O)c(OC)c1
[2]
  inhibition: Active

## COc1cc(/C=C/C(=O)OCCc2ccccc2)cc(OC)c1O
[2]
  inhibition: Active

## COc1cc(/C=C/C(=O)OCCCc2ccccc2)cc(OC)c1O
[1]
  IC50: 340 nM
[2]
  inhibition: Active

## COc1ccc(OC)c(/C=C/C(=O)OCCc2ccccc2)c1
[2]
  inhibition: inactive

## COc1cc(/C=C/C(=O)NCCc2ccccc2)cc(OC)c1O
[1]
  IC50: 960 nM
[2]
  inhibition: inactive

## COc1cc(/C=C/C(=O)OCCc2ccc(C(F)(F)F)cc2)cc(OC)c1O
[2]
  inhibition: Active

## COc1cc(CCC(=O)OCCc2ccccc2)cc(OC)c1O
[1]
  IC50: 590 nM
[2]
  inhibition: Active

## COc1cc(/C=C/COCCCc2ccccc2)cc(OC)c1O
[1]
  IC50: 560 nM
[2]
  inhibition: Active

## CCCOC(=O)/C=C/c1cc(OC)c(O)c(OC)c1
[1]
  IC50: 710 nM
[2]
  inhibition: Active

## COc1ccc(CCOC(=O)/C=C/c2cc(OC)c(O)c(OC)c2)cc1
[2]
  inhibition: Active

## COc1cccc(/C=C/C(=O)OCCc2ccccc2)c1OC
[2]
  inhibition: inactive

## COc1cc(/C=C/C(=O)OCCc2cccc(F)c2)cc(OC)c1O
[1]
  IC50: 230 nM
[2]
  inhibition: Active

## COc1ccccc1CCOC(=O)/C=C/c1cc(OC)c(O)c(OC)c1
[1]
  IC50: 250 nM
[2]
  inhibition: Active

## COC(=O)/C=C/c1cc(OC)c(O)c(OC)c1
[2]
  inhibition: inactive

## COc1cccc(CCOC(=O)/C=C/c2cc(OC)c(O)c(OC)c2)c1
[1]
  IC50: 210 nM
[2]
  inhibition: Active

## COc1cc(/C=C/C(=O)OC(C)C)cc(OC)c1O
[2]
  inhibition: inactive

## CCOC(=O)/C=C/c1cc(OC)c(O)c(OC)c1
[2]
  inhibition: inactive
